Measurements published in ChEMBL document CHEMBL1157539, “Thousands of chemical starting points for antimalarial lead identification” (Nature, 2010).

system: Plasmodium falciparum; test: GSK_TCMDC: Inhibition of Plasmodium falciparum 3D7 in whole erythrocytes, using parasite LDH activity as an index of growth.; type: functional, organism-based; conditions: not given

SMILES	XC50 [nM]
CC(=O)Nc1ccc2[nH]cc(C3CCN(CC4CCC(NC(=O)/C=C/c5ccc(Cl)c(Cl)c5)CC4)CC3)c2c1 (stereo not given)	441

same assay, conditions: Plasmodium falciparum, 3D7

SMILES	XC50 [nM]
O=C(Nc1cccc(-c2nn3ccccc3c2-c2ccnc(Nc3cccc(F)c3)n2)c1)c1c(F)ccc(F)c1F	856
COc1ccc2ccccc2c1CNCC1CCN(CC2CCCCC2)CC1	761
CCCNCc1ccc(-c2ccc(CN(CCOC)C(=O)CC3CCCC3=O)cc2)nc1 (stereo not given)	1240
CC1CCCC(Nc2noc(-c3sccc3Br)n2)C1 (stereo not given)	689
Cn1cnc(CCNC(=O)c2cccc(-c3cccc(-c4nc5cc(C(F)(F)F)ccc5[nH]4)c3)c2)c1	700
NC1CCCN(Cc2cccc(-c3ccc(-c4nc5ccccc5[nH]4)s3)c2)C1 (stereo not given)	585
O=C(NC1CCCCN(Cc2ccccc2O)C1)c1cc(F)cc(F)c1 (stereo not given)	1170
Cc1cc(C)cc(CC(=O)N2CCC(n3c(C)nc4ccc(C)cc43)CC2)c1	534
Cc1cc(Nc2ccc(O)cc2)nc2cccc(O)c12	742
N#Cc1c(F)cc(N2CCC(NCC[C@H](N)Cc3ccc(F)c(F)c3)CC2)cc1F	857
COc1ccc(CCc2ccc(-c3c(C)[nH]c(C)c(Cl)c3=O)cc2)cc1OC	94
N#Cc1cccc(C(=O)Nc2ccc(-c3cccc(CN4CCC(O)CC4)c3)cc2)c1	995
N#Cc1cccc(NC(=O)c2cccc(S(=O)(=O)NC3CCN(CC4CCCCC4)C3)c2)c1 (stereo not given)	578
Cc1cccc2nc(-c3ccc(-c4cccc(NC(=O)Nc5ccc(F)c(F)c5F)c4)cc3)[nH]c12	338
Cc1cc(N)nc2ccc(-c3ccc(CCN)cc3)cc12	621
Cc1cccc(CN2CCCN(Cc3ccc(C(=O)Nc4ccc(C(C)(C)C)cc4)cc3)CC2)c1	727
CCCC(C)NC(=O)[C@H](Cc1ccccc1)NC(=O)c1ccc(O)c(-c2ccc(OC)cc2)c1 (stereo not given in full)	1240
Clc1ccc(-c2csc3ncnc(Cl)c23)cc1	460
CN(C(=O)/C=C/c1ccccc1F)C1CCN(CCCCCNC(=O)/C=C/c2ccc(Cl)c(Cl)c2)CC1	509
COc1ccc(CNC2Cc3ccccc3C2)cc1-c1ccc(S(=O)(=O)NCc2ccccc2)s1	832
COc1ccc2nc(-c3cc(-c4ccc(NC(=O)C(C)C)cc4)cnc3N)[nH]c2c1	557
O=C(Nc1cccc(CN2CCCN(Cc3cccnc3)CC2)c1)c1ccc(Cl)c(Cl)c1	928
CC(C)CCNC(=N)Nc1ccc(OCCCCCOc2ccc(NC(=N)NCCC(C)C)cc2)cc1	1080
C=CCOc1ccc(C(=O)Nc2nonc2-c2ccc(OC)c(OC)c2)cc1	642
COc1ccc(-c2ccc(NC(=O)c3ccc(F)cc3)cc2)cc1CN1CCCN(C)CC1	663

SMILES	XC50 [nM]
CC(=O)Nc1ccc2[nH]cc(C3CCN(CC4CCC(NC(=O)/C=C/c5ccc(Cl)c(Cl)c5)CC4)CC3)c2c1 (stereo not given)	719
O=C(Nc1ccc(-c2nc3ccccc3[nH]2)cc1)c1cccc(S(=O)(=O)N2CCCC2)c1	743
NOCCCCOc1ccccc1	177
Cc1cc(Nc2ccccc2)nc(Nc2ccccc2C)n1	1040
Cc1ccc(-n2ncc(C(=O)Nc3cc(Cl)cc(Cl)c3)c2C2CCNCC2)cc1C	551
FC(F)(F)c1ccc(Nc2nnnc3ccccc23)cc1	692
CCCCCCCN1CCC(NC(=O)Nc2ccnc3ccc(OC)cc23)C(C(=O)OCC)C1 (stereo not given)	426
Cc1ccc(Nc2nc(N/N=C/c3cccc(O)c3)nc(Nc3ccc([N+](=O)[O-])cc3)n2)cc1C	735
CC(CO)(CO)NCc1cc2ccc3ccsc3c2c2ccccc12	229
CCOc1c(Cl)cc(Cl)cc1CNCCCNc1nc2ccccc2[nH]1	831
CC(C)(C)c1ccc(-c2ccccc2CNC(=O)c2cccc(O)c2)cc1	267
Cn1nccc1C(=O)NCCNCc1ccc(-c2ccc(-c3nc4cc(C(F)(F)F)ccc4[nH]3)cc2)cc1	145
FC(F)(F)COc1ccc2ccccc2c1CCNCCCCNCCc1c(OCC(F)(F)F)ccc2ccccc12	426
N=C(N)Nc1nc(-c2cccc(NC(=O)NCc3ccc(OC(F)(F)F)cc3)c2)cs1	703
CCOCCCn1c(=N)c(C(=O)NC(C)c2ccccc2)cc2c(=O)n3cccc(C)c3nc21 (stereo not given)	1200
CCc1ccc(O)c(-c2cc(C(=O)Nc3ccc(OC)c(Cl)c3)[nH]n2)c1	870
c1ccc(Oc2ccc(Nc3ccnc(Nc4ccc(CN5CCOCC5)cc4)n3)cc2)cc1	941
O=C(/C=C/c1ccc(Cl)c(Cl)c1)NCCCCCN1CCC(NC(=O)c2cccc(Cl)c2)CC1	687
Cn1cc(C(=O)Nc2cccc(-c3cccc(-c4nc5cc(F)ccc5[nH]4)c3)c2)n(C)c1=O	388
CCc1ccc(NC(=O)c2ccc(CN3CCCN(CCC(C)C)CC3)cc2)cc1	632
O=C(CSc1ccc(Cl)cc1)NC1CCC(CN2CCC(c3c[nH]c4ccccc34)CC2)CC1 (stereo not given)	934
Cc1ccc(CN2CCC(Oc3cccc(NC(=O)c4ccc(C(F)(F)F)cc4)c3)CC2)cc1	1020
CC(C)C[C@H](NC(=O)c1ccc(OCCN2CCOCC2)cc1)C(=O)N[C@H](/C=N/N1CCNC1=O)CCc1ccccc1	365
CN(C)CCOc1cc(NC(=O)Nc2ccc(Cl)cc2C(F)(F)F)ccc1I	930
O=C(Nc1ccc(-c2cccc(-c3nc4cc(C(F)(F)F)ccc4[nH]3)c2)cc1)c1ccc(=O)[nH]n1	1070

SMILES	XC50 [nM]
COc1ccc(NCc2cccc(-c3cccc(CNCCc4ccccc4)c3)c2)cc1	1050
CCN(CC)CCN(Cc1ccc(-c2ccc(C(F)(F)F)cc2)cc1)C(=O)Cn1c(CCc2cccc(F)c2F)nc(=O)c2cc(F)ccc21	826
O=C(c1ccc(F)c(F)c1)N1CCOC(CCN2CCC(c3ccccc3)CC2)(c2ccc(Cl)c(Cl)c2)C1 (stereo not given)	1040
CC(CCNc1c2ccccc2nc2ccccc12)N1CCN(C)CC1 (stereo not given)	803
O=C(/C=C/c1ccc(Cl)c(Cl)c1)NC1CCC(CN2CCC(Cc3c[nH]c4ccccc34)CC2)CC1 (stereo not given)	888
O=C(Nc1cccc(CN2CCN(Cc3ccc(O)cc3)CC2)c1)c1cc2ccccc2s1	682
CC(=O)Nc1ccc(OCCCN(Cc2ccccc2C(F)(F)F)c2ccc(C(F)(F)F)c(C#N)c2)c(Cl)c1	1450
CC(Cc1ccc(CN2CCN(Cc3ccccc3)CC2)cc1)NCC(O)c1cccc(C(F)(F)F)c1 (stereo not given)	893
CN1CCCC(CN2CCN(Cc3ccc(-c4ccc(-c5nc6cc(F)ccc6[nH]5)cc4)cc3)CC2)C1 (stereo not given)	117
CC(Cc1ccc(SC(C)C)cc1)NCC(O)c1cccc(Cl)c1 (stereo not given)	827
CCC1(CC)N=C(N)N=C(N)C1c1ccc(Cl)c(Cl)c1 (stereo not given)	380
COc1nc2c(N3CCN(CCNCc4ccc5c(n4)NC(=O)CS5)CC3)ccnc2cc1F	713
CN(c1ccc(NC(=O)Nc2cccc(Cl)c2)cc1)c1ccnc(N)n1	628
COc1cc(Nc2nccn3c(-c4ccsc4)cnc23)cc(OC)c1OC	890
COc1c(C2CCN(CCCCNC(=O)c3cc(-c4ccc(C#N)cc4)n[nH]3)CC2)ccc2c1CCCC2	1160
N#CCCN1CCN(Cc2cccc(-c3ccc(-c4nc5ccccc5[nH]4)s3)c2)CC1	759
CCN(CC)CCCN(CCCN(CC)CC)c1cc(C)nc(Nc2ccc(Cl)cc2)n1	211
O=C(Cn1c(CCc2cccc(F)c2F)cc(=O)c2ccccc21)N(Cc1ccc(-c2ccc(C(F)(F)F)cc2)cc1)C1CCN(CCO)CC1	1320
CCCC1(NC[C@@H](O)[C@H](Cc2ccccc2)NC(=O)c2cc(NCC)cc(N3CCCCS3(=O)=O)c2)CCCCC1	247
c1ccc2cc3c(Nc4ccc(N5CCCCCC5)cc4)ccnc3cc2c1	936
Cc1noc(C)c1-c1cccc(CNCc2cccc(-c3ccc(-c4nc5ccccc5[nH]4)s3)c2)c1	204
CS(=O)(=O)Nc1ccc2c(C3CCN(CCC4CCN(C(=O)/C=C/c5ccc(Cl)c(Cl)c5)CC4)CC3)c[nH]c2c1	599
CSc1ccc2ccccc2c1CCNCCCCNCCc1c(SC)ccc2ccccc12	408
COc1cc2nc(N3CC(C)N(C(=O)Cc4ccc(-c5ccccc5)cc4)C(C)C3)nc(N)c2cc1OC (stereo not given)	796
CC(C)CNCc1ccc(-c2ccc(CN(C(=O)Nc3ccccc3)C3CCN(Cc4ccccc4)CC3)cc2)cc1	680

SMILES	XC50 [nM]
CC(C)CNCc1cccc(-c2ccc(CN(C(=O)NCCc3ccccc3)C3CCN(Cc4ccccc4)CC3)cc2)c1	764
COc1cccc(C(=O)NCCc2cccc(Cl)c2)c1Oc1ccccc1	844
CC1CN(Cc2ccccc2)CCN1c1ccc(NC(=O)c2ccc(F)cc2)cc1 (stereo not given)	1010
Cc1cc(C(F)(F)F)cc(-n2ncc(-c3ccc(C(=O)NCc4ccccc4N)cc3)c2N)n1	453
O=C(/C=C/c1ccc(Cl)c(Cl)c1)NCCCCCN1CCC(NC(=O)Nc2ccc(F)c(F)c2)CC1	842
CC(C)(C)Oc1ccc(NC(=O)c2ccccc2O)cc1	1010
COc1cc2nc(NCc3nc4ccccc4[nH]3)nc(N)c2cc1OC	885
CCOc1ccc2c(N/N=C/c3cccc([N+](=O)[O-])c3)cc(C)nc2c1	224
Fc1ccc2[nH]c(-c3ccc(-c4ccc(CN5CCC(CCN6CCCCC6)CC5)cc4)cc3)nc2c1	129
O=C(Nc1ccnc(N2CCCN(Cc3cccc(O)c3)CC2)c1)c1ccc(F)cc1	1480
Oc1cccc(Nc2ccnc3cc(-c4ccccn4)ccc23)c1	744
O=C(C1CC1)N1c2ccccc2CCc2ccccc21	833
CC(C)(C)c1ccc(CN2CCC(NC(=O)c3cc(-c4cccc(C(F)(F)F)c4)cs3)C2)cc1 (stereo not given)	805
O=C(NC1CCC(CN2CCC(c3c[nH]c4ccccc34)CC2)CC1)c1cc(-c2ccccc2Cl)n(-c2cccc(Cl)c2)n1 (stereo not given)	851
CCCc1cc(Cc2cnc(N)nc2N)cc(OC)c1OC	988
COc1c(C2CCN(CCCCNC(=O)c3noc(-c4ccc(C#N)cc4)n3)CC2)ccc2c1CCCC2	776
Oc1cccc(/C=N/Nc2ccnc3cc(Cl)ccc23)c1	728
CS(=O)(=O)n1c(CN2CCN(c3ncc(C(F)(F)F)cc3Cl)CC2)nc2ccccc21	1060
O=C(O)c1ccc(OCOCOc2ccc(C(=O)O)c(O)c2)cc1O	190
CN(Cc1ccccc1)C1CCCN(c2cc(NC(=O)c3cccs3)ccn2)C1 (stereo not given)	1130
CNC(=S)NCc1cnc2ccccn12	195
COc1ccc(C=NN=c2cc(C)[nH]c3ccccc23)c(OC)c1	616
CC(C)Oc1ccc(CCCON2C(=N)N=C(N)NC2(C)C)cc1	3.2
C#CCN1CCC2=C(C1)c1c(O)cc(C(C)CCCc3ccc(F)cc3)cc1OC2(C)C (stereo not given)	731
